Experimental findings from PMC11187217, “Anti-adhesive, anti-biofilm and fungicidal action of newly synthesized gemini quaternary ammonium salts” (Scientific Reports, 2024) are described below.

For the data set, the system named is Salmonella Typhimurium TA100. The conditions noted are these: TA100, positive control 15 μg/mL. As to the method: The mutagenic potential of the tested gemini QAS was determined using the Ames test[83] using Salmonella Typhimurium TA98 and Salmonella Typhimurium TA100 with defects in histidine biosynthesis. The culture of S. Typhimurium TA98 and S. Typhimurium TA100 was incubated with shaking at 37 °C for 18 h, centrifuged (3000 rpm, 5 min) and OD = 1.5 was determined, at a wavelength of λ = 590 nm. The agar was dissolved and cooled to 42 °C. […] The media were incubated for 48 h at 37 °C. The positive control for the S. Typhimurium TA98 strain was acriflavin (100 μg/ml), and for the S. Typhimurium TA100 strain, sodium azide (15 μg/ml). The negative control was the culture without tested compound and with NaCl (0,9%). After incubation, the colonies were counted and the mutagenicity index (MR) was determined—the ratio of the number of revertants resulting from the mutagenic effect of the tested compound to the number of spontaneous revertants. Experiment was performed in three repetitions.

Molecules are shown by their SMILES.

Take `[N-]=[N+]=[N-].[Na+]` [sodium azide, reference compound]: the “Mutagenicity ratio (MR)” value amounted to 25.5. Where the note is “± SD”, the Number of colonies is on record as 5116.0 ± 5.66.
